Test results from patent publication US20220177456A1, “COMPOUNDS, COMPOSITIONS AND METHODS” (Denali Therapeutics Inc., priority 2019, published 2022).

Each compound was assayed on ISR pathway (ATF4 translation), H4 ATF4-NLuc (clone 17) cell line (assay: ATF4 Nano Luciferase reporter integrated stress response (ISR) assay in H4 ATF4-NLuc cells). Conditions: human H4 neuroglioma ATF4-NLuc cells; compound 30 minutes, then 50 μm sodium arsenite for 6 hours; luminescence readout.
Format: cell-based
Text: Cellular stress leads to activation of the integrated stress response pathway through one of four eukaryotic initiation factor 2α kinases and halts global translation, while allowing for the translation of select transcripts like ATF4 (activating transcription factor 4) that are important for the response to cellular stress. During normal conditions, small open reading frames (ORFs) in the 5′ UTR of ATF4 occupy the ribosome and prevent translation of the coding sequence of ATF4. During stress conditions however, the ribosome scans past these upstream ORFs and preferentially begins translation at the coding sequence of ATF4. In this way, the translation, and thus protein level of ATF4 is a readout of ISR pathway activation. Thus, a fusion of the uORFs and the beginning of the coding sequence of ATF to a common cellular reporter like nano-luciferase allows for a sensitive and high-throughput readout of ISR pathway activity.
Compounds as provided herein were tested in the following assay. The ATF4 Nano Luciferase reporter was constructed by fusing the human full length 5′ untranslated region (5′-UTR) and a small portion of the coding sequence of the ATF4 gene upstream of the Nano Luciferase (NLuc) coding sequence lacking it's start codon. Specifically, nucleotides +1 through +364 (relative to the transcriptional start site) of ATF4 transcript variant 2 (NCBI NM_182810.2) flanked 5′ by EcoRI and 3′ by BamHI restriction enzyme sites were synthesized and cloned into the EcoRI/BamHI cloning sites of pLVX-EF1a-IRES-Puro lentivirus vector (Clontech). Lentiviral particles were produced with Lenti-X single shots (VSV-G, Clontech) according to the manufacturer's instructions and used to transduce a human H4 neuroglioma cell line (ATCC HT1B-148). H4 cells were selected with 1.25 μg/mL Puromycin, and clonal cell lines generated by limiting dilution. We utilized this cell line to generate an integrated stress response (ISR) assay to evaluate the activity of ISR pathway inhibitors via luminescence readout. The H4 ATF4-NLuc (clone 17) cell line is plated at a density of […] cells in 96-well or 384-well respectively in DMEM +10% fetal bovine serum. 24-hours later test compounds diluted in dimethyl sulfoxide (DMSO) are added for 30 minutes at 37° C., followed by ISR pathway activation with 50 μm sodium arsenite aqueous solution for 6 additional hours. Nano Glo luciferase reagent (N1150, Promega) is added according to manufacturer instructions and the luminescence signal (corresponding to the level of ATF4 translation and thus ISR pathway activation) is read with a standard plate reader with luminescence detection capabilities.
In the tables below, activity of the tested compounds is provided, and in Table 3 as follows: +++=0.003 μM<IC50<1 μM; ++=IC50 1-10 μM; +=IC50>10 μM.

| IC50 [nM] | Compound |
| --- | --- |
| 3 to 1000 | O=C(COc1ccc(Cl)cc1)N[C@@H]1CC[C@@H](C(=O)NCc2cccc(C(F)(F)F)c2)OC1 [Example 14, (2S,5R)-5-[[2-(4-chlorophenoxy)acetyl]amino]-N-[[3-(trifluoromethyl)phenyl]methyl] tetrahydropyran-2-carboxamide] |
| 3 to 1000 | CN(Cc1ccc(Cl)cc1)C(=O)[C@@H]1CC[C@@H](NC(=O)COc2ccc(Cl)cc2)CO1 [Example 19, (2S,5R)-5-[[2-(4-chlorophenoxy)acetyl]amino]-N-[(4-chlorophenyl)methyl]-N-methyl-tetrahydropyran-2-carboxamide] |
| 3 to 1000 | O=C(COc1ccc(Cl)c(F)c1)N[C@@H]1CC[C@@H](C(=O)N2CCC(OC(F)(F)F)C2)OC1 (stereo partly drawn) [Example 31, 2-(4-chloro-3-fluoro-phenoxy)-N-[(3R,6S)-6-[3-(trifluoromethoxy)pyrrolidine-1-carbonyl]tetrahydropyran-3-yl]acetamide] |
| 3 to 1000 | CC1CN(C(=O)[C@@H]2CC[C@@H](NC(=O)COc3ccc(Cl)cc3)CO2)Cc2ccc(Cl)cc21 (stereo partly drawn) [Example 3, 2-(4-chlorophenoxy)-N-[(3R,6S)-6-(6-chloro-4-methyl-3,4-dihydro-1H-isoquinoline-2-carbonyl)tetrahydropyran-3-yl]acetamide] |
| 3 to 1000 | O=C(COc1ccc(C(F)(F)F)cc1)N[C@@H]1CC[C@@H](C(=O)NCCCOC(F)(F)F)OC1 [Example 4, (2S,5R)-N-[3-(trifluoromethoxy)propyl]-5-[[2-[4-(trifluoromethyl)phenoxy]acetyl]amino]tetrahydropyran-2-carboxamide] |
| 3 to 1000 | O=C(COc1ccc(C(F)(F)F)cc1)N[C@@H]1CC[C@@H](C(=O)N[C@H]2C[C@@H](COC(F)(F)F)C2)OC1 [Example 13, (2S,5R)-N-[3-cis-(trifluoromethoxymethyl)cyclobutyl]-5-[[2-[4-(trifluoromethyl)phenoxy]acetyl]amino]tetrahydropyran-2-carboxamide] |
| 3 to 1000 | O=C(NCC1CC(OC(F)(F)F)C1)[C@@H]1CC[C@@H](n2cnc(-c3ccc(Cl)c(F)c3)c2)CO1 (stereo partly drawn) [Example 23, (2S,5R)-5-[4-(4-chloro-3-fluoro-phenyl)imidazol-1-yl]-N-[[3-(trifluoromethoxy)cyclobutyl]methyl] tetrahydropyran-2-carboxamide] |
| 3 to 1000 | C[C@H](NC(=O)[C@@H]1CC[C@@H](NC(=O)COc2ccc(Cl)cc2)CO1)c1ccc(Cl)cc1 [Example 18, (2S,5R)-5-[[2-(4-chlorophenoxy)acetyl]amino]-N-[(1S)-1-(4-chlorophenyl)ethyl] tetrahydropyran-2-carboxamide] |
| 3 to 1000 | O=C(COc1ccc(Cl)cc1)N[C@@H]1CC[C@@H](C(=O)NCc2ccc(C(F)(F)F)cn2)OC1 [Example 27, (2S,5R)-5-[[2-(4-chlorophenoxy)acetyl]amino]-N-[[5-(trifluoromethyl)-2-pyridyl]methyl] tetrahydropyran-2-carboxamide] |
| 3 to 1000 | O=C(COc1ccc(Cl)cc1)N[C@@H]1CC[C@@H](C(=O)NCc2ccc(C(F)(F)F)nc2)OC1 [Example 16, (2S,5R)-5-[[2-(4-chlorophenoxy)acetyl]amino]-N-[[6-(trifluoromethyl)-3-pyridyl]methyl] tetrahydropyran-2-carboxamide] |
| 3 to 1000 | O=C(COc1ccc(C(F)(F)F)cc1)N[C@@H]1CC[C@@H](C(=O)Nc2cc3ccc(Cl)cc3cn2)OC1 [Example 9, (2S,5R)-N-(7-chloro-3-isoquinolyl)-5-[[2-[4-(trifluoromethyl)phenoxy]acetyl]amino]tetrahydropyran-2-carboxamide] |
| 3 to 1000 | O=C(N[C@H]1C[C@@H](OC(F)(F)F)C1)[C@@H]1CC[C@@H](n2cnc(-c3ccc(Cl)c(F)c3)c2)CO1 [Example 25, (2S,5R)-5-[4-(4-chloro-3-fluoro-phenyl)imidazol-1-yl]-N-[3-cis-(trifluoromethoxy)cyclobutyl] tetrahydropyran-2-carboxamide] |
| 3 to 1000 | O=C(COc1ccc(C(F)(F)F)cc1)N[C@@H]1CC[C@@H](C(=O)Nc2ccc3cc(Cl)ccc3n2)OC1 [Example 2, (2S,5R)—N-(6-chloro-2-quinolyl)-5-[[2-[4-(trifluoromethyl)phenoxy]acetyl]amino]tetrahydropyran-2-carboxamide] |
| 3 to 1000 | O=C(N[C@@H]1CC[C@@H](C(=O)N[C@H]2C[C@@H](COC(F)(F)F)C2)OC1)c1ccc2cc(C(F)(F)F)ccc2n1 [Example 12, N-[(3R,6S)-6-[[3-cis-(trifluoromethoxymethyl)cyclobutyl]carbamoyl]tetrahydropyran-3-yl]-6-(trifluoromethyl) quinoline-2-carboxamide] |
| 3 to 1000 | O=C(COc1ccc(C(F)(F)F)cc1)N[C@@H]1CC[C@@H](C(=O)NCc2ccc(C(F)(F)F)cc2)OC1 [Example 1, (2S,5R)-5-[[2-[4-(trifluoromethyl)phenoxy]acetyl]amino]-N-[[4-(trifluoromethyl)phenyl]methyl]tetrahydropyran-2-carboxamide] |
| 3 to 1000 | O=C(COc1ccc(C(F)(F)F)cc1)N[C@@H]1CC[C@@H](C(=O)N2Cc3ccc(C(F)(F)F)cc3C2)OC1 [Example 11, N-[(3R,6S)-6-[5-(trifluoromethyl)isoindoline-2-carbonyl]tetrahydropyran-3-yl]-2-[4-(trifluoromethyl)phenoxy] acetamide] |
| 3 to 1000 | O=C(NC[C@H]1C[C@@H](OC(F)(F)F)C1)[C@@H]1CC[C@@H](n2cnc(-c3ccc(Cl)c(F)c3)c2)CO1 [Example 26, (2S,5R)-5-[4-(4-chloro-3-fluoro-phenyl)imidazol-1-yl]-N-[[3-cis-(trifluoromethoxy)cyclobutyl]methyl] tetrahydropyran-2-carboxamide] |
| 3 to 1000 | O=C(COc1ccc(Cl)cc1)N[C@@H]1CC[C@@H](C(=O)NCc2ccc(C(F)(F)F)cc2)OC1 [Example 20, (2S,5R)-5-[[2-(4-chlorophenoxy)acetyl]amino]-N-[[4-(trifluoromethyl)phenyl]methyl] tetrahydropyran-2-carboxamide] |
| 3 to 1000 | O=C(COc1ccc(C(F)(F)F)cc1)N[C@@H]1CC[C@@H](C(=O)N2CCc3cc(C(F)(F)F)ccc3C2)OC1 [Example 5, N-[(3R,6S)-6-[6-(trifluoromethyl)-3,4-dihydro-1H-isoquinoline-2-carbonyl]tetrahydropyran-3-yl]-2-[4-(trifluoromethyl)phenoxy] acetamide] |
| 3 to 1000 | O=C(COc1ccc(Cl)cc1)N[C@@H]1CC[C@@H](C(=O)NCc2cccc(Cl)c2)OC1 [Example 15, (2S,5R)-5-[[2-(4-chlorophenoxy)acetyl]amino]-N-[(3-chlorophenyl)methyl] tetrahydropyran-2-carboxamide] |
| 3 to 1000 | O=C(COc1ccc(C(F)(F)F)cc1)N[C@@H]1CC[C@@H](C(=O)N2CCc3nc(C(F)(F)F)ccc3C2)OC1 [Example 10, N-[(3R,6S)-6-[2-(trifluoromethyl)-7,8-dihydro-5H-1,6-naphthyridine-6-carbonyl]tetrahydropyran-3-yl]-2-[4-(trifluoromethyl)phenoxy] acetamide] |
| 3 to 1000 | O=C(COc1ccc(Cl)cc1)N[C@@H]1CC[C@@H](C(=O)N2CCc3cc(Cl)ccc3C2)OC1 [Example 22, 2-(4-chlorophenoxy)-N-[(3R,6S)-6-(6-chloro-3,4-dihydro-1H-isoquinoline-2-carbonyl)tetrahydropyran-3-yl]acetamide] |
| 3 to 1000 | O=C(COc1ccc(Cl)c(F)c1)N[C@@H]1CC[C@@H](C(=O)N2CCC(OC(F)(F)F)CC2)OC1 [Example 30, 2-(4-chloro-3-fluoro-phenoxy)-N-[(3R,6S)-6-[4-(trifluoromethoxy)piperidine-1-carbonyl]tetrahydropyran-3-yl]acetamide] |
| 3 to 1000 | O=C(COc1ccc(Cl)cc1)N[C@@H]1CC[C@@H](C(=O)NCc2ccc(Cl)cc2)OC1 [Example 29, (2S,5R)-5-[[2-(4-chlorophenoxy)acetyl]amino]-N-[(4-chlorophenyl)methyl] tetrahydropyran-2-carboxamide] |
| 3 to 1000 | CC1c2ccc(Cl)cc2CCN1C(=O)[C@@H]1CC[C@@H](NC(=O)COc2ccc(Cl)cc2)CO1 (stereo partly drawn) [Example 6, 2-(4-chlorophenoxy)-N-[(3R,6S)-6-(6-chloro-1-methyl-3,4-dihydro-1H-isoquinoline-2-carbonyl)tetrahydropyran-3-yl]acetamide] |
